Results from ChEMBL document CHEMBL1136795, “A computational model of binding thermodynamics: the design of cyclin-dependent kinase 2 inhibitors” (J Med Chem, 2003).
pIC50: −log10 of the molar value.

Biological target: Cyclin-dependent kinase 2 (Homo sapiens, UniProt P24941)
Experiment: Inhibition of Cyclin-dependent kinase 2 (CDK2)

Molecule `CN1CCC(c2c(O)cc(O)c3c(=O)cc(Sc4ccccc4Cl)oc23)C(O)C1` (stereo unspecified) has a pIC50 of 5.68.
